Legend:
skin = test: Preliminary experiments: D-ribose without penetrant applied to wound or skin; type: in vivo
From the text: Since the object of this invention is to deliver active ingredient to the basal and dermal cells below the epidermis, when the skin barrier is intact, it has been found necessary to include a penetrant in the solutions, lotions or creams of this invention. Such a penetrant will enhance the delivery of active ingredient by transitory disruption of the cell to cell connections of the skin. Penetrants in general include ionic detergents, non-ionic detergents, fatty acids, organic solvents and oils. Certain constructs such as liposomes and nanoparticles can also be used to transport active ingredient through the stratum corneum barrier. It is well known in the industry to select a penetrant with the desired characteristics, which vary in effect from the intense penetration of the solvent dimethyl sulfoxide (DMSO) which cause the rapid co-transport past the skin barrier of any agent present on the skin, to the milder action of dilute ethanol. Of recent interest are the constructs termed liposomes and nanoparticles, which are molecules that form closed structures that can incorporate an active ingredient. Liposomes and nanoparticles can readily penetrate otherwise impermeable barriers.
The skin is a barrier. […]

skin (tanning) = test: D-ribose lotion tested against commercial tanning creams on upper front thigh; type: in vivo
Description: In other experiments, D-ribose was tested against Jergen's Dark Tanning cream on the upper front thigh of the subject. Each was applied liberally over a six inch by four inch area twice a day for five days. The “tanning” agent in this cream is unknown. The areas on which the Jergen's was applied tanned in 36 hours, hit maximum darkness in two days and faded in eight days. […] In this test, the D-ribose caused maximum darkness in five days and persisted for two weeks after application was discontinued.
D-ribose was also tested against l'Oreal Sublime Glow as above. The active ingredients in this cream were 7.5% octinoate, octsalate 5.0%, octocrylene 3.0% and oxybenzone 6.17%. […] This color began fading within two days of last application and was completely faded within a week.
The evenness of the D-ribose tanned areas can be attributed to the natural production of melanin due to the stimulation by D-ribose penetrating and diffusing to the dermal cells.

[1] = test system: cultured normal human fibroblasts; conditions: cited from earlier work
[2] = test system: fibroblasts in the basal layer; conditions: cited from earlier work
melanocytes [3] = test: 4% D-ribose lotion on back of forearm, applied one to four days (melanocyte stimulation vs Maillard reaction); type: in vivo
From the text: In order to ascertain that the tan color was due to the stimulation of melanocytes and not to a chemical reaction such as the Maillard reaction, the subject applied 4% D-ribose in the above referenced lotion to the back of the forearm. The lotion was applied one day only; two days; three days; and four days. […] By one week after application, the areas to which lotion was applied for one or two days began fading and were completely faded by ten days. The areas to which was applied for three or four days also began fading at one week after application and were completely faded by ten days after last application. The subject had areas of vitilago, a scar and freckles.

skeletal muscle ATP = conditions: oral administration; U.S. Pat. Nos. 6,159,942 and 6,534,480; cited from earlier work
melanocytes [4] = test: Effect of D-ribose on melanocytes in vivo: four concentrations in commercial lotion on inside forearm; conditions: for Days to maximum tan / Days to first sign of tanning: twice a day, inside forearm; for Days to first sign of tanning: no sun light; for Spread of tanned area beyond the application site: two inch application area
From the text: To determine the effect of D-ribose on melanocytes, the dermal cells that produce a tanning color when exposed to sunlight, four concentrations of D-ribose suspended in a commercial lotion were applied with a cotton applicator twice a day to two inch areas of A subject's inside forearm. The test area was not exposed to sun light. The composition of the lotion was: water, glycerin, mineral oil, stearic acid, glycol stearate, stearamide AMP, petrolatum, dimethicone, chamomile, helianthus, sambucas, theobroma, seed butter, glyceryl, stearate, cetyl alcohol, triethanolamine, acetylated lanolin alcohol and cetyl acetate. The results are shown in Table I. Application was stopped after 11 days. Color began to fade at 14 days in all cases and was gone about two weeks after last application. […] The color spread, presumably because of lateral diffusion of the D-ribose within the dermis, stimulating melanocytes outside the application site. The spread area decreased in intensity of color as the diffused D-ribose decreased in concentration.

lymphocytes = conditions: cell culture; U.S. Pat. No. 6,663,859; cited from earlier work
[5] = upper front thigh, twice a day for five days
[6] = composition containing 1% D-ribose, female volunteers
[7] = 4% D-ribose lotion applied for one or two days
[8] = 4% D-ribose lotion applied for three or four days
[9] = all cases, application stopped after 11 days

O=C[C@H](O)[C@H](O)[C@H](O)CO [D-ribose]
Effect on tanning (skin; D-ribose in water applied to the skin, no penetrant): no effect on tanning
Effect on improving skin (skin; preliminary application of ribose without penetrant): unsuccessful
Uniformity of tanned area (skin (tanning); all experiments): uniform and not blotchy
Persistence of tan after application was discontinued (skin (tanning); [5]): two
Time to maximum darkness (skin (tanning); [5]): five
Spread of color beyond area of application (skin (tanning); upper front thigh, twice a day for five days, D-ribose at 4% in lotion): spread beyond the area of application
Effect on fibroblasts subjected to hypoxic shock [1]: protective effect
Effect on face wrinkles [2, 6]: reduce face wrinkles
Tanning effect [2, 6]: No tanning effect
Melanin formation ([2]; lower amounts of D-ribose, as noted in the '707 application): do not stimulate melanin formation
Tanning by day three (melanocytes [3]; 4% D-ribose in lotion, back of forearm, all four areas (applied one, two, three, four days)): lightly tanned
Time after application at which areas began fading (melanocytes [3]; [7]): one
Time until completely faded (melanocytes [3]; [7]): ten
Time after application at which areas began fading (melanocytes [3]; [8]): one
Time after last application until completely faded (melanocytes [3]; [8]): ten
Tanning of areas of vitilago and scarring (melanocytes [3]; subject's areas of vitilago and a scar): did not tan
Effect on freckles (melanocytes [3]; subject's freckles): got darker
Effect on ATP levels in skeletal muscle (skeletal muscle ATP): raises ATP levels in skeletal muscle
Days to maximum tan (melanocytes [4]; 1.0% w/v D-ribose in lotion): No tanning
Days to first sign of tanning (melanocytes [4]; 1.0% w/v D-ribose in lotion): No tanning
Color of spread area versus center of application (melanocytes [4]; 4% w/v D-ribose): diameter. The spread area is not as dark as the
Days to maximum tan (melanocytes [4]; 4% w/v D-ribose in lotion): Six
Days to first sign of tanning (melanocytes [4]; 4% w/v D-ribose in lotion): Four
Diameter of tanned area (melanocytes [4]; 4% w/v D-ribose, at six days): the tanned area is about four inches in
Spread of tanned area beyond the application site (melanocytes [4]; 4% w/v D-ribose, at six days): two inches beyond the application site, that is,
Color of tan compared with other concentration (melanocytes [4]; 6% w/v D-ribose): A little darker than the 4%, the tanned area has
Diameter of tanned area (melanocytes [4]; 6% w/v D-ribose): site, that is, the tanned area is about four inches
Days to maximum tan (melanocytes [4]; 6% w/v D-ribose in lotion): Six
Days to first sign of tanning (melanocytes [4]; 6% w/v D-ribose in lotion): Four
Spread of tanned area beyond the application site (melanocytes [4]; 6% w/v D-ribose): spread about two inches beyond the application
Color of tan compared with other concentration (melanocytes [4]; 10% w/v D-ribose): the same as for the 6%.
Diameter of tanned area (melanocytes [4]; 10% w/v D-ribose): is now about eight inches in diameter. Color is
Days to maximum tan (melanocytes [4]; 10% w/v D-ribose in lotion): Six
Days to first sign of tanning (melanocytes [4]; 10% w/v D-ribose in lotion): Four
Spread of tanned area beyond the application site (melanocytes [4]; 10% w/v D-ribose): The tanned area has spread about three inches
Day at which color began to fade (melanocytes [4]; [9]): 14 days
Time after last application until color was gone (melanocytes [4]; [9]): about two
Intensity of tan reached (melanocytes [4]; fair-skinned subject): medium intensity
Quality of tan color (melanocytes [4]; fair-skinned subject): identical to that resulting from normal sun tanning
Effect on growth of lymphocytes (lymphocytes): stimulates the growth of lymphocytes
